Like-named read-outs stand apart in the source and are kept apart here.
What was measured:
human MER (528-end) = biological target: T1, human MER (528-end) (Homo sapiens, UniProt Q12866); assay: HTRF kinase activity biochemical assay, MER; conditions: 10 μM ATP, 30 minutes pre-incubation; read-out: HTRF MERTK IC50
T1 construct: human MER (528-end); purchased Camnabio, Japan
T1 sequence (Q12866 528-999 limits assumed): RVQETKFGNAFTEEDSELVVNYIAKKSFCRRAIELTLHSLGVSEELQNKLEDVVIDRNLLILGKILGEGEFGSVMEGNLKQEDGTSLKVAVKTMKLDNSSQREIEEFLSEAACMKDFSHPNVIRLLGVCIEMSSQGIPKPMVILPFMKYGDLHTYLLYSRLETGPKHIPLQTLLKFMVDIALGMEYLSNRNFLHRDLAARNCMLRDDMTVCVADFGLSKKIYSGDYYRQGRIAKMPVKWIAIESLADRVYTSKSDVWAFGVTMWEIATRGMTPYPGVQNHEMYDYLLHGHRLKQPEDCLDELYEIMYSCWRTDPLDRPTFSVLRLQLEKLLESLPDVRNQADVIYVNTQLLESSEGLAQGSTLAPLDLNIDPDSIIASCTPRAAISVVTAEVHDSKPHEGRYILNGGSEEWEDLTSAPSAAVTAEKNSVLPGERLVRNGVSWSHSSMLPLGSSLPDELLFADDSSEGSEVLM

human AXL (473-end) = biological target: T2, human AXL (473-end) (Homo sapiens, UniProt P30530); assay: HTRF kinase activity biochemical assay, AXL; conditions: 10 μM ATP, 30 minutes pre-incubation
T2 construct: human AXL (473-end); purchased SignalChem, Canada
T2 sequence (P30530 473-894 limits assumed): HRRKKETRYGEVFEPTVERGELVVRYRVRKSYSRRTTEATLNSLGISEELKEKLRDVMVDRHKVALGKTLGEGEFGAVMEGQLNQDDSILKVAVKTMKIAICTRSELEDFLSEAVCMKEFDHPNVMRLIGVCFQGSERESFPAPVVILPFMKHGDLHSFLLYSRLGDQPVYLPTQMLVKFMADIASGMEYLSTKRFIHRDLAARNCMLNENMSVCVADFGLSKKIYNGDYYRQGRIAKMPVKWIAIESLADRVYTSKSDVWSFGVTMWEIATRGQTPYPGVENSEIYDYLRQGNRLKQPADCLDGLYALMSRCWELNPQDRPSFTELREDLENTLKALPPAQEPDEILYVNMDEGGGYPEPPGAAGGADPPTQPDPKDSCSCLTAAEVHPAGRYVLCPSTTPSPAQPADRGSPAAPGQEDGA

human TYRO3 (455-end) = biological target: T3, human TYRO3 (455-end) (Homo sapiens, UniProt Q06418); assay: HTRF kinase activity biochemical assay, TYRO3
T3 construct: TYRO3 (455-end); purchased SignalChem, Canada
T3 sequence (Q06418 455-890 limits assumed): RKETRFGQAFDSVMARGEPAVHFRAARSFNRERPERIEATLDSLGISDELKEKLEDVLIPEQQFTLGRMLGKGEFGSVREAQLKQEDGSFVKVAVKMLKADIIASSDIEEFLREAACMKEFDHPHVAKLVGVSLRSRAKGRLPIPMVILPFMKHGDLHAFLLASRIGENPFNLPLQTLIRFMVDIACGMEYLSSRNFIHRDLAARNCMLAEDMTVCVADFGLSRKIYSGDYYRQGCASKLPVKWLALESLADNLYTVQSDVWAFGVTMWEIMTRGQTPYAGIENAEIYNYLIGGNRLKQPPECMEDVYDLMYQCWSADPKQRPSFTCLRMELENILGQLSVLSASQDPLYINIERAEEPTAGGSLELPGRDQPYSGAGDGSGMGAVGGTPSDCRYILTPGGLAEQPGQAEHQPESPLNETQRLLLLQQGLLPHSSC

[1] = 10 μM ATP, 30 minutes pre-incubation, read-out: HTRF TYRO IC50

Compound	IC50 (human MER (528-end))	IC50 (human AXL (473-end))	IC50 (human TYRO3 (455-end); [1])	IC50 (human TYRO3 (455-end))
CCC1(C)CN(C2CCN(CCO)CC2)c2ccc(-c3ccc(CO[C@H]4CCC[C@@H]4NC(=O)c4cc(-c5cnn(C)c5)cnc4N)cc3)cc21 (mixture of isomers) [Example 40, 2-amino-N-{(1S,2S)-2-[(4-{3-ethyl-1-[1-(2-hydroxyethyl)piperidin-4-yl]-3-methyl-2,3-dihydro-1H-indol-5-yl}phenyl)methoxy]cyclopentyl}-5-(1-methyl-1H-pyrazol-4-yl)pyridine-3-carboxamide]	< 10 nM	< 10 nM	< 10 nM	
Cn1cc(-c2cnc(N)c(C(=O)N[C@H]3CCC[C@@H]3OCc3ccc(-c4ccc5c(c4)NC(=O)C5N4CCN(CCO)CC4)cc3)c2)cn1 (stereo partly drawn) [Example 69, 2-amino-N-{(1S,2S)-2-[(4-{3-[4-(2-hydroxyethyl)piperazin-1-yl]-2-oxo-2,3-dihydro-1H-indol-6-yl}phenyl)methoxy]cyclopentyl}-5-(1-methyl-1H-pyrazol-4-yl)pyridine-3-carboxamide]	100 to 1000 nM	100 to 1000 nM	> 1000 nM	
Nc1ncc(-c2cncc(F)c2)cc1C(=O)N[C@H]1CCC[C@@H]1OCc1ccc(-c2ccc3c(c2)CCCC3N2CCN(CCO)CC2)cc1 (stereo partly drawn) [Example 123, 6-amino-5′-fluoro-N-{(1S,2S)-2-[(4-{5-[4-(2-hydroxyethyl)piperazin-1-yl]-5,6,7,8-tetrahydronaphthalen-2-yl}phenyl)methoxy]cyclopentyl}[3,3′-bipyridine]-5-carboxamide]	< 10 nM	< 10 nM	10 to 100 nM	
Cn1cc(-c2cnc(N)c(C(=O)N[C@H]3CCC[C@@H]3OCc3ccc(-c4ccc5c(cnn5C5CCN(CCO)CC5)c4)cc3)c2)cn1 [Example 111, 2-amino-N-{(1S,2S)-2-[(4-{1-[1-(2-hydroxyethyl)piperidin-4-yl]-1H-indazol-5-yl}phenyl)methoxy]cyclopentyl}-5-(1-methyl-1H-pyrazol-4-yl)pyridine-3-carboxamide]	10 to 100 nM	100 to 1000 nM	> 1000 nM	
Nc1ncc(-c2cncc(F)c2)cc1C(=O)N[C@H]1CCC[C@@H]1OCc1ccc(-c2ccc3c(c2)OCCC3N2CCN(CCO)CC2)cc1 (stereo partly drawn) [Example 132, 6-amino-5′-fluoro-N-{(1S,2S)-2-[(4-{4-[4-(2-hydroxyethyl)piperazin-1-yl]-3,4-dihydro-2H-1-benzopyran-7-yl}phenyl)methoxy]cyclopentyl}[3,3′-bipyridine]-5-carboxamide]	< 10 nM	< 10 nM	100 to 1000 nM	
CN1CCN(C2CC(C)(C)c3cc(-c4ccc(CO[C@H]5CCC[C@@H]5NC(=O)c5cc(-c6ccc(F)nc6)cnc5N)cc4)ccc32)CC1 (stereo partly drawn) [Example 94, 6-amino-N-[(1S,2S)-2-({4-[3,3-dimethyl-1-(4-methylpiperazin-1-yl)-2,3-dihydro-1H-inden-5-yl]phenyl}methoxy)cyclopentyl]-6′-fluoro[3,3′-bipyridine]-5-carboxamide]	< 10 nM	< 10 nM	10 to 100 nM	
CC1(C)CC(N2CCN(CCO)CC2)c2ccc(-c3ccc(CO[C@H]4CCC[C@@H]4NC(=O)c4cc(-c5cccnc5F)cnc4N)cc3)cc21 (stereo partly drawn) [Example 119, 6-amino-2′-fluoro-N-{(1S,2S)-2-[(4-{1-[4-(2-hydroxyethyl)piperazin-1-yl]-3,3-dimethyl-2,3-dihydro-1H-inden-5-yl}phenyl)methoxy]cyclopentyl}[3,3′-bipyridine]-5-carboxamide]	< 10 nM	< 10 nM	10 to 100 nM	
Cn1cc(-c2cnc(N)c(C(=O)N[C@H]3CCC[C@@H]3OCc3ccc(-c4ccc5c(ccn5CC(=O)O)c4)cc3)c2)cn1 [Example 61, {5-[4-({[(1S,2S)-2-{[2-amino-5-(1-methyl-1H-pyrazol-4-yl)pyridine-3-carbonyl]amino}cyclopentyl]oxy}methyl)phenyl]-1H-indol-1-yl}acetic acid]	10 to 100 nM	10 to 100 nM	> 1000 nM	
Cn1cc(-c2cnc(N)c(C(=O)N[C@H]3CCC[C@@H]3OCc3ccc(-c4ccc5c(n4)C(C)(C)C(=O)N5C4CCN(CCO)CC4)cc3)c2)cn1 [Example 73, 2-amino-N-{(1S,2S)-2-[(4-{1-[1-(2-hydroxyethyl)piperidin-4-yl]-3,3-dimethyl-2-oxo-2,3-dihydro-1H-pyrrolo[3,2-b]pyridin-5-yl}phenyl)methoxy]cyclopentyl}-5-(1-methyl-1H-pyrazol-4-yl)pyridine-3-carboxamide]	100 to 1000 nM	> 1000 nM		100 to 1000 nM
CC(C)n1ccc2cc(-c3ccc(CO[C@H]4CCC[C@@H]4NC(=O)c4cc(-c5cnn(C)c5)cnc4N)cc3)ccc21 [Example 60, 2-amino-5-(1-methyl-1H-pyrazol-4-yl)-N-[(1S,2S)-2-({4-[1-(propan-2-yl)-1H-indol-5-yl]phenyl}methoxy)cyclopentyl]pyridine-3-carboxamide]	< 10 nM	10 to 100 nM	> 1000 nM	
Nc1ncc(-c2cccnc2F)cc1C(=O)N[C@H]1CCC[C@@H]1OCc1ccc(-c2ccc3c(c2)OCCC3N2CCN(CCO)CC2)cc1 (stereo partly drawn) [Example 134, 6-amino-2′-fluoro-N-{(1S,2S)-2-[(4-{4-[4-(2-hydroxyethyl)piperazin-1-yl]-3,4-dihydro-2H-1-benzopyran-7-yl}phenyl)methoxy]cyclopentyl}[3,3′-bipyridine]-5-carboxamide]	< 10 nM	< 10 nM	100 to 1000 nM	
Cn1cc(-c2cnc(N)c(C(=O)N[C@H]3CCC[C@@H]3OCc3ccc(-c4ccc5c(c4)C(C)(C)CCC5N4CCNCC4)cc3)c2)cn1 (stereo partly drawn) [Example 146, 2-amino-N-[(1S,2S)-2-({4-[8,8-dimethyl-5-(piperazin-1-yl)-5,6,7,8-tetrahydronaphthalen-2-yl]phenyl}methoxy)cyclopentyl]-5-(1-methyl-1H-pyrazol-4-yl)pyridine-3-carboxamide]	< 10 nM	< 10 nM	10 to 100 nM	
COc1cccc(-c2cnc(N)c(C(=O)N[C@H]3CCC[C@@H]3OCc3ccc(-c4ccc5c(c4)CC[C@@H]5N4CCN(CCO)CC4)cc3)c2)n1 [Example 178, 6′-amino-N-{(1S,2S)-2-[(4-{(1S)-1-[4-(2-hydroxyethyl)piperazin-1-yl]-2,3-dihydro-1H-inden-5-yl}phenyl)methoxy]cyclopentyl}-6-methoxy[2,3′-bipyridine]-5′-carboxamide]	< 10 nM	< 10 nM	10 to 100 nM	
C=C(C)c1cnc(N)c(C(=O)N[C@H]2CCC[C@@H]2OCc2ccc(-c3ccc4c(c3)C(C)(C)CN4C3CCN(CCO)CC3)cc2)c1 [Example 51, 2-amino-N-{(1S,2S)-2-[(4-{1-[1-(2-hydroxyethyl)piperidin-4-yl]-3,3-dimethyl-2,3-dihydro-1H-indol-5-yl}phenyl)methoxy]cyclopentyl}-5-(prop-1-en-2-yl)pyridine-3-carboxamide]	< 10 nM	< 10 nM	< 10 nM	
Cn1cc(-c2cnc(N)c(C(=O)N[C@H]3CCC[C@@H]3OCc3ccc(-c4ccc5c(c4)CCC5N4CCN(CC5COC(C)(C)O5)CC4)cc3)c2)cn1 (stereo partly drawn) [Example 79, 2-amino-N-[(1S,2S)-2-{[4-(1-{4-[(2,2-dimethyl-1,3-dioxolan-4-yl)methyl]piperazin-1-yl}-2,3-dihydro-1H-inden-5-yl)phenyl]methoxy}cyclopentyl]-5-(1-methyl-1H-pyrazol-4-yl)pyridine-3-carboxamide]	< 10 nM	< 10 nM	> 1000 nM	

From patent US20260146035A1, “FUSED BICYCLIC COMPOUNDS AND THEIR USE AS MER AND AXL INHIBITORS” (DONG-A ST CO., LTD., priority 2022, published 2026)
